We go through 25 molecules from patent publication US20100144755A1 (Glaxo Group Limited, priority 2006, published 2010).

SMILES strings stand for the structures. Where only a bound is given, the exact number is not on record here.

One test has as its system TNF-stimulated IL8 production by human neutrophils. Description: TNF-stimulated IL-8 production from human neutrophils.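 Also: IL-8 in cell-free supernatant quantified by sandwich ELISA, inhibition calculated against a compound-free control.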 Format: cell-based. The settings on record: Neutrophil, TNF 100 ng/ml, about 20 hrs, bounds reflect the top concentration screened, for 202(c) and 120 a range over multiple runs with ends given as 'greater than'.
Protocol: TNF-Stimulated IL-8 Production from Human Neutrophils
The effect of test compounds on TNF-stimulated IL8 production by human neutrophils is measured as follows. Neutrophils are prepared from blood obtained from consenting donors, using standard methods. Blood is collected in heparinized syringes and layered over histopaque (30 ml/20 ml). Following centrifugation, the red cell pellet is resuspended in PBS and purified over a dextran gradient. […] Cells are added (0.5-1 ml) to 48 well plates already containing compound at 1000× final concentration in neat DMSO or 10% DMSO in RPMI1640 with 10% FBS. TNF (final concentration 100 ng/ml) is used as the stimulus. Cells incubated for approximately 20 hrs at 37° C., 5% CO2. Levels of IL-8 in the cell free supernatant are determined by sandwich ELISA, and inhibition relative to a control with DMPO but no compound is calculated.
For orientation: IC50 means the point on the concentration scale where inhibition reaches its midpoint. For the molecule `Cc1ccc(NC(=O)c2cccs2)cc1-c1nc(S(C)(=O)=O)nc2c1ccc(=O)n2-c1c(F)cccc1F` [7(c), N-{3-[8-(2,6-difluorophenyl)-2-(methylsulfonyl)-7-oxo-7,8-dihydropyrido[2,3-d]pyrimidin-4-yl]-4-methylphenyl}-2-thiophenecarboxamide], the IC50 is over 0.1 µM.
In turn, `Cc1ccc(NC(=O)c2cccs2)cc1-c1nc(NC2CCNCC2)nc2c1ccc(=O)n2-c1c(F)cccc1F` [7(d), N-{3-[8-(2,6-difluorophenyl)-7-oxo-2-(4-piperidinylamino)-7,8-dihydropyrido[2,3-d]pyrimidin-4-yl]-4-methylphenyl}-2-thiophenecarboxamide] had an IC50 of over 0.1 µM.
`Cc1cc(C(=O)Nc2ccc(C)c(-c3nc(NC4CCNCC4)nc4c3ccc(=O)n4-c3c(F)cccc3F)c2)ccc1F` [12(c), N-{3-[8-(2,6-difluorophenyl)-7-oxo-2-(4-piperidinylamino)-7,8-dihydropyrido[2,3-d]pyrimidin-4-yl]-4-methylphenyl}-4-fluoro-3-methylbenzamide] registered an IC50 of over 0.1 µM.
The same measure, in the same setting: then `Cc1ccc(NC(=O)c2ccc(Cl)nc2)cc1-c1nc(NC2CCNCC2)nc2c1ccc(=O)n2-c1c(F)cccc1F` [14(c), 6-chloro-N-{3-[8-(2,6-difluorophenyl)-7-oxo-2-(4-piperidinylamino)-7,8-dihydropyrido[2,3-d]pyrimidin-4-yl]-4-methylphenyl}-3-pyridinecarboxamide], with over 0.1 µM.
The same measure, in the same setting: then `Cc1ccc(C(=O)O)cc1-c1nc(NC(CO)CO)nc2c1ccc(=O)n2-c1c(F)cccc1F` [80(a), 3-(8-(2,6-difluorophenyl)-2-{[2-hydroxy-1-(hydroxymethyl)-ethyl]amino}-7-oxo-7,8-dihydropyrido[2,3-d]pyrimidin-4-yl)-4-methylbenzoic acid], with over 0.1 µM.
Consider `Cc1ccc(C(=O)NCc2ccccc2)cc1-c1nc([S+](C)[O-])nc2c1ccc(=O)n2-c1c(F)cccc1F` (stereo not shown) [116(b), 3-[8-(2,6-difluorophenyl)-2-(methylsulfinyl)-7-oxo-7,8-dihydropyrido[2,3-d]pyrimidin-4-yl]-4-methyl-N-(phenylmethyl)benzamide], for which the IC50 is over 0.1 µM.
Turning to `CCN(CC)CCCNc1nc(-c2cc(C(=O)O)ccc2C)c2ccc(=O)n(-c3c(F)cccc3F)c2n1` [118(a), 3-[2-{[3-(diethylamino)propyl]amino}-8-(2,6-difluorophenyl)-7-oxo-7,8-dihydropyrido[2,3-d]pyrimidin-4-yl]-4-methylbenzoic acid], the 50% inhibitory concentration (IC50) is over 0.1 µM.
`Cc1ccc(C(=O)O)cc1-c1nc(N2CCC(N3CCC(C)CC3)CC2)nc2c1ccc(=O)n2-c1c(F)cccc1F` [163(b), 3-[8-(2,6-difluorophenyl)-2-(4-methyl-1,4′-bipiperidin-1′-yl)-7-oxo-7,8-dihydropyrido[2,3-d]pyrimidin-4-yl]-4-methylbenzoic acid] showed a half-inhibitory concentration (IC50) of over 0.1 µM.
Same read-out and setting: then `CCCNC(=O)c1ccc(-c2nc(NCCCN(CC)CC)nc3c2ccc(=O)n3-c2c(F)cccc2F)cc1` [188(b), 4-[2-{[3-(diethylamino)propyl]amino}-8-(2,6-difluorophenyl)-7-oxo-7,8-dihydropyrido[2,3-d]pyrimidin-4-yl]-N-propylbenzamide], with over 0.1 µM.
Consider `CCN(CC)CCCNc1nc(-c2cccc(C(=O)O)c2)c2ccc(=O)n(-c3c(F)cccc3F)c2n1` [193(a), 3-[2-{[3-(diethylamino)propyl]amino}-8-(2,6-difluorophenyl)-7-oxo-7,8-dihydropyrido[2,3-d]pyrimidin-4-yl]benzoic acid], for which the half-maximal inhibitory concentration (IC50) was over 0.1 µM.

In the next test the test system is influx of neutrophils to the lung in LPS-challenged rats. As to the kind of experiment: Rat LPS neutrophilia model. Format: in vivo. The settings on record: LPS aerosol, intratracheal dosing, in at least one of the range of conditions tested, significance p<0.05. A digest of the protocol:
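Compound given intratracheally (200 ul suspension or dry powder via microsprayer) to isoflurane-anesthetized rats 15 min–24 h before 15 min LPS aerosol (100 ug/ml). Lavage 4 h post-challenge; neutrophils from differential counts. % inhibition versus no-compound controls at a given concentration and pretreat time.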
As for `CCN(CC)CCCNc1nc(-c2cc(C(=O)Nc3ccccc3)ccc2C)c2ccc(=O)n(-c3c(F)cccc3F)c2n1` [Example 147, 3-[2-{[3-(diethylamino)propyl]amino}-8-(2,6-difluorophenyl)-7-oxo-7,8-dihydropyrido[2,3-d]pyrimidin-4-yl]-4-methyl-N-phenylbenzamide], the inhibition of neutrophilia entry is on record as “statistically nonsignificant inhibition”.
Turning to `CCN(CC)CCCNc1nc(-c2cc(C(=O)N[C@@H](C)c3ccccc3)ccc2C)c2ccc(=O)n(-c3c(F)cccc3F)c2n1` [Example 149, 3-[2-{[3-(diethylamino)propyl]amino}-8-(2,6-difluorophenyl)-7-oxo-7,8-dihydropyrido[2,3-d]pyrimidin-4-yl]-4-methyl-N-[(1S)-1-phenylethyl]benzamide], the inhibition of neutrophilia entry is “inactive”.
For `CCN(CC)CCCNc1nc(-c2cc(C(=O)Nc3ccc(F)cc3)ccc2C)c2ccc(=O)n(-c3c(F)cccc3F)c2n1` [Example 160, 3-[2-{[3-(diethylamino)propyl]amino}-8-(2,6-difluorophenyl)-7-oxo-7,8-dihydropyrido[2,3-d]pyrimidin-4-yl]-N-(4-fluorophenyl)-4-methylbenzamide], the inhibition of neutrophilia result was “statistically significant inhibition”.
As to `CCC(C)NC(=O)c1ccc(C)c(-c2nc(NCCCN(CC)CC)nc3c2ccc(=O)n3-c2c(F)cccc2F)c1` (stereo not shown) [Example 162, 3-[2-{[3-(diethylamino)propyl]amino}-8-(2,6-difluorophenyl)-7-oxo-7,8-dihydropyrido[2,3-d]pyrimidin-4-yl]-4-methyl-N-(1-methylpropyl)benzamide], the inhibition of neutrophilia result was “statistically nonsignificant inhibition”.
Still for that read-out and setting: the same measure for `CCCNC(=O)c1ccc(C)c(-c2nc(N3CCC(N4CCC(C)CC4)CC3)nc3c2ccc(=O)n3-c2c(F)cccc2F)c1` [Example 166, 3-[8-(2,6-difluorophenyl)-2-(4-methyl-1,4′-bipiperidin-1′-yl)-7-oxo-7,8-dihydropyrido[2,3-d]pyrimidin-4-yl]-4-methyl-N-propylbenzamide]: “statistically significant inhibition”; for `CCCCNC(=O)c1ccc(C)c(-c2nc(N3CCC(N4CCC(C)CC4)CC3)nc3c2ccc(=O)n3-c2c(F)cccc2F)c1` [Example 167, N-butyl-3-[8-(2,6-difluorophenyl)-2-(4-methyl-1,4′-bipiperidin-1′-yl)-7-oxo-7,8-dihydropyrido[2,3-d]pyrimidin-4-yl]-4-methylbenzamide]: “statistically significant inhibition”.
Still for that read-out and setting: then `Cc1ccc(C(=O)NCC(C)C)cc1-c1nc(N2CCC(N3CCC(C)CC3)CC2)nc2c1ccc(=O)n2-c1c(F)cccc1F` [Example 168, 3-[8-(2,6-difluorophenyl)-2-(4-methyl-1,4′-bipiperidin-1′-yl)-7-oxo-7,8-dihydropyrido[2,3-d]pyrimidin-4-yl]-4-methyl-N-(2-methylpropyl)benzamide], with “inactive”.
On the same count and under the same terms, then `Cc1ccc(C(=O)NC2CCCC2)cc1-c1nc(N2CCC(N3CCC(C)CC3)CC2)nc2c1ccc(=O)n2-c1c(F)cccc1F` [Example 169, N-cyclopentyl-3-[8-(2,6-difluorophenyl)-2-(4-methyl-1,4′-bipiperidin-1′-yl)-7-oxo-7,8-dihydropyrido[2,3-d]pyrimidin-4-yl]-4-methylbenzamide], with “statistically nonsignificant inhibition”; and `Cc1ccc(C(=O)NCC(F)(F)F)cc1-c1nc(N2CCC(N3CCC(C)CC3)CC2)nc2c1ccc(=O)n2-c1c(F)cccc1F` [Example 172, 3-[8-(2,6-difluorophenyl)-2-(4-methyl-1,4′-bipiperidin-1′-yl)-7-oxo-7,8-dihydropyrido[2,3-d]pyrimidin-4-yl]-4-methyl-N-(2,2,2-trifluoroethyl)benzamide], with “inactive”.
Regarding `CCNC(=O)c1ccc(C)c(-c2nc(N3CCC(N4CCC(C)CC4)CC3)nc3c2ccc(=O)n3-c2c(F)cccc2F)c1` [Example 173, 3-[8-(2,6-difluorophenyl)-2-(4-methyl-1,4′-bipiperidin-1′-yl)-7-oxo-7,8-dihydropyrido[2,3-d]pyrimidin-4-yl]-N-ethyl-4-methylbenzamide], the inhibition of neutrophilia result is “statistically significant inhibition”.
The same measure, in the same setting: then `Cc1ccc(C(=O)Nc2ccc(F)cc2)cc1-c1nc(N2CCC(N3CCC(C)CC3)CC2)nc2c1ccc(=O)n2-c1c(F)cccc1F` [Example 174, 3-[8-(2,6-difluorophenyl)-2-(4-methyl-1,4′-bipiperidin-1′-yl)-7-oxo-7,8-dihydropyrido[2,3-d]pyrimidin-4-yl]-N-(4-fluorophenyl)-4-methylbenzamide], with “inactive”; and `Cc1ccc(C(=O)NC2CCC2)cc1-c1nc(N2CCC(N3CCC(C)CC3)CC2)nc2c1ccc(=O)n2-c1c(F)cccc1F` [Example 175, N-cyclobutyl-3-[8-(2,6-difluorophenyl)-2-(4-methyl-1,4′-bipiperidin-1′-yl)-7-oxo-7,8-dihydropyrido[2,3-d]pyrimidin-4-yl]-4-methylbenzamide], with “inactive”; and `Cc1ccc(C(=O)NC2CC2)cc1-c1nc(N2CCC(N3CCC(C)CC3)CC2)nc2c1ccc(=O)n2-c1c(F)cccc1F` [Example 178, N-cyclopropyl-3-[8-(2,6-difluorophenyl)-2-(4-methyl-1,4′-bipiperidin-1′-yl)-7-oxo-7,8-dihydropyrido[2,3-d]pyrimidin-4-yl]-4-methylbenzamide], with “statistically nonsignificant inhibition”.
Still for that read-out and setting: then `CCCNC(=O)c1cc(F)c(C)c(-c2nc(NCCCN(CC)CC)nc3c2ccc(=O)n3-c2c(F)cccc2F)c1` [Example 181, 3-[2-{[3-(diethylamino)propyl]amino}-8-(2,6-difluorophenyl)-7-oxo-7,8-dihydropyrido[2,3-d]pyrimidin-4-yl]-5-fluoro-4-methyl-N-propylbenzamide], with “statistically nonsignificant inhibition”; and `CCN(CC)CCCNc1nc(-c2cc(C(=O)NC3CC3)cc(F)c2C)c2ccc(=O)n(-c3c(F)cccc3F)c2n1` [Example 185, N-cyclopropyl-3-[2-{[3-(diethylamino)propyl]amino}-8-(2,6-difluorophenyl)-7-oxo-7,8-dihydropyrido[2,3-d]pyrimidin-4-yl]-5-fluoro-4-methylbenzamide], with “statistically nonsignificant inhibition”.
